Results taken from US6737383B1, “Herbicidal oxadiazolidines” (priority 1999, dated 2004).

Assays:
wild oat = test: Test B pre/postemergence wild oat; format: in vivo, Avena fatua
Summary of the method: (§1)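 Test chemicals in a non-phytotoxic solvent mixture with surfactant were sprayed preemergence onto planted seeds and postemergence onto plants 2 to 18 cm tall (1- to 4-leaf stage). After twelve to sixteen days in a greenhouse, injury was visually rated against untreated controls from 0 (no effect) to 10 (complete control).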

purple nutsedge = test: Test B pre/postemergence purple nutsedge; format: in vivo, Cyperus rotundus
Summary of the method: as §1

surinam grass = test: Test B pre/postemergence surinam grass; format: in vivo, Brachiaria decumbens
Summary of the method: as §1

sugar beet = test: Test B pre/postemergence sugar beet; format: in vivo, Beta vulgaris
Summary of the method: as §1

rape = test: Test B pre/postemergence rape; format: in vivo, Brassica napus
Summary of the method: as §1

corn = test: Test B pre/postemergence corn; format: in vivo, Zea mays
Summary of the method: as §1

pigweed = test: Test B pre/postemergence pigweed; format: in vivo, Amaranthus retroflexus
Summary of the method: as §1

wheat = test: Test B pre/postemergence wheat; format: in vivo, Triticum aestivum
Summary of the method: as §1

crabgrass = test: Test B pre/postemergence crabgrass; format: in vivo, Digitaria sanguinalis
Summary of the method: as §1

morningglory = test: Test B pre/postemergence morningglory; format: in vivo, Ipomoea hederacea
Summary of the method: as §1

duck salad = test: Test B flood test duck salad; format: in vivo, Heteranthera limosa
Summary of the method: (§2)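 Read-out is a visual response score from 0 (no effect) to 10 (complete control), assigned by comparison with untreated controls. Treatment was applied at the 2-leaf stage, and plants stayed in the greenhouse for twelve to sixteen days before scoring.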

giant foxtail = test: Test B pre/postemergence giant foxtail; format: in vivo, Setaria faberii
Summary of the method: as §1

blackgrass = test: Test B pre/postemergence blackgrass; format: in vivo, Alopecurus myosuroides
Summary of the method: as §1

bamyardgrass = test: Test B flood test barnyardgrass; format: in vivo, Echinochloa crus-galli
Summary of the method: as §2

soybean = test: Test B pre/postemergence soybean; format: in vivo, Glycine max
Summary of the method: as §1

smallflower flatsedge = test: Test B flood test smallflower flatsedge; format: in vivo, Cyperus difformis
Summary of the method: as §2

rice = test: Test B flood test rice; format: in vivo, Oryza sativa
Summary of the method: as §2

velvetleaf = test: Test B pre/postemergence velvetleaf; format: in vivo, Abutilon theophrasti
Summary of the method: as §1

bedstraw = test: Test B pre/postemergence bedstraw; format: in vivo, Galium aparine; settings: Postemergence
Summary of the method: as §1

cocklebur = test: Test B pre/postemergence cocklebur; format: in vivo, Xanthium strumarium
Summary of the method: as §1

[1] = Postemergence, Rate 125 g/ha, scale 0 to 10, 0 is no effect, 10 is complete control
[2] = Postemergence, Rate 500 g/ha, scale 0 to 10, 0 is no effect, 10 is complete control
[3] = Preemergence, Rate 62 g/ha, scale of 0 to 10 where 0 is no effect and 10 is complete control
[4] = Preemergence, Rate 125 g/ha, scale 0 to 10, 0 is no effect, 10 is complete control
[5] = Preemergence, Rate 500 g/ha, scale 0 to 10, 0 is no effect, 10 is complete control
[6] = Rate 62 g/ha, Postemergence, scale 0 to 10 (0 no effect, 10 complete control)
[7] = Preemergence, Rate 250 g/ha, scale 0 to 10, 0 is no effect, 10 is complete control
[8] = Postemergence, Rate 250 g/ha, scale 0 to 10
[9] = Rate 62 g/ha, flood test species, Pre-emergence, visual evaluation after twelve to sixteen days
[10] = Rate 125 g/ha, under heading Pre-emergence, flood test species, visual evaluation after twelve to sixteen days
[11] = Rate 250 g/ha, Pre-emergence (flood test species), scale 0 to 10, 0 is no effect, 10 is complete control
[12] = Rate 500 g/ha, Pre-emergence section of Table B, 0 to 10 scale (0 no effect, 10 complete control)

SMILES: CC(C)N(C(=O)n1oc(=O)n(CC(=O)C2CC2)c1=O)c1ccccc1 [Compound 489]
- Wild oats plant response rating (wild oat; [1]): 1
- Plant response rating, Wild oats (wild oat; [2]): 3
- Plant response rating, Wild oats (wild oat; [3]): 0
- Wild oats plant response rating (wild oat; [4]): 4
- Wild oats plant response rating (wild oat; [5]): 9
- Wild oats plant response rating (wild oat; [6]): 0
- Nutsedge plant response rating (purple nutsedge; [1]): 0
- Plant response rating, Nutsedge (purple nutsedge; [2]): 0
- Plant response rating, Nutsedge (purple nutsedge; [3]): 0
- Nutsedge plant response rating (purple nutsedge; [4]): 0
- Nutsedge plant response rating (purple nutsedge; [5]): 0
- Nutsedge plant response rating (purple nutsedge; [6]): 0
- B. signalgrass plant response rating (surinam grass; [1]): 2
- B. signalgrass plant response rating (surinam grass; Postemergence, Rate 250 g/ha, scale 0 to 10, 0 no effect, 10 complete control): 6
- Plant response rating, B. signalgrass (surinam grass; [2]): 8
- Plant response rating, B. signalgrass (surinam grass; [3]): 6
- B. signalgrass plant response rating (surinam grass; [4]): 7
- B. signalgrass plant response rating (surinam grass; [7]): 8
- B. signalgrass plant response rating (surinam grass; [5]): 9
- B. signalgrass plant response rating (surinam grass; [6]): 1
- Sugarbeets plant response rating (sugar beet; [1]): 0
- Plant response rating, Sugarbeets (sugar beet; [2]): 0
- Plant response rating, Sugarbeets (sugar beet; [3]): 0
- Sugarbeets plant response rating (sugar beet; [4]): 2
- Sugarbeets plant response rating (sugar beet; [5]): 5
- Sugarbeets plant response rating (sugar beet; [6]): 0
- Rape plant response rating (rape; [1]): 0
- Plant response rating, Rape (rape; [2]): 0
- Plant response rating, Rape (rape; [3]): 0
- Rape plant response rating (rape; [4]): 0
- Rape plant response rating (rape; [5]): 9
- Rape plant response rating (rape; [6]): 0
- Corn plant response rating (corn; [1]): 0
- Corn plant response rating (corn; [8]): 0
- Plant response rating, Corn (corn; [2]): 4
- Plant response rating, Corn (corn; [3]): 0
- Corn plant response rating (corn; [4]): 0
- Corn plant response rating (corn; [5]): 5
- Corn plant response rating (corn; [6]): 0
- Redroot pigweed plant response rating (pigweed; [1]): 0
- Plant response rating, Redroot pigweed (pigweed; [2]): 2
- Plant response rating, Redroot pigweed (pigweed; [3]): 0
- Redroot pigweed plant response rating (pigweed; [5]): 10
- Redroot pigweed plant response rating (pigweed; [6]): 0
- Wheat plant response rating (wheat; [1]): 0
- Plant response rating, Wheat (wheat; [2]): 2
- Plant response rating, Wheat (wheat; [3]): 0
- Wheat plant response rating (wheat; [4]): 0
- Wheat plant response rating (wheat; [5]): 6
- Wheat plant response rating (wheat; [6]): 0
- Crabgrass plant response rating (crabgrass; [1]): 5
- Crabgrass plant response rating (crabgrass; [8]): 8
- Plant response rating, Crabgrass (crabgrass; [2]): 9
- Plant response rating, Crabgrass (crabgrass; [3]): 9
- Crabgrass plant response rating (crabgrass; [4]): 10
- Crabgrass plant response rating (crabgrass; [5]): 10
- Crabgrass plant response rating (crabgrass; [6]): 2
- Morningglory plant response rating (morningglory; [1]): 7
- Plant response rating, Morningglory (morningglory; [2]): 10
- Plant response rating, Morningglory (morningglory; [3]): 0
- Morningglory plant response rating (morningglory; [4]): 0
- Morningglory plant response rating (morningglory; [5]): 1
- Morningglory plant response rating (morningglory; [6]): 2
- Plant response rating, Ducksalad (0 to 10 scale, 0 is no effect, 10 is complete control) (duck salad; [9]): 0
- Ducksalad plant response rating (0 to 10 scale, 0 is no effect, 10 is complete control) (duck salad; [10]): 0
- Ducksalad plant response rating (duck salad; [11]): 0
- Ducksalad plant response rating (duck salad; [12]): 0
- Giant foxtail plant response rating (giant foxtail; [1]): 8
- Plant response rating, Giant foxtail (giant foxtail; [2]): 9
- Plant response rating, Giant foxtail (giant foxtail; [3]): 9
- Giant foxtail plant response rating (giant foxtail; [4]): 10
- Giant foxtail plant response rating (giant foxtail; [5]): 10
- Giant foxtail plant response rating (giant foxtail; [6]): 2
- Blackgrass plant response rating (blackgrass; [1]): 6
- Blackgrass plant response rating (blackgrass; [8]): 8
- Plant response rating, Blackgrass (blackgrass; [2]): 8
- Plant response rating, Blackgrass (blackgrass; [3]): 7
- Blackgrass plant response rating (blackgrass; [4]): 8
- Blackgrass plant response rating (blackgrass; [7]): 9
- Blackgrass plant response rating (blackgrass; [5]): 10
- Blackgrass plant response rating (blackgrass; [6]): 1
- Plant response rating, Barnyardgrass (0 to 10 scale, 0 is no effect, 10 is complete control) (bamyardgrass; [9]): 0
- Barnyardgrass plant response rating (0 to 10 scale, 0 is no effect, 10 is complete control) (bamyardgrass; [10]): 0
- Barnyardgrass plant response rating (bamyardgrass; [11]): 0
- Barnyardgrass plant response rating (bamyardgrass; [12]): 0
- Soybean plant response rating (soybean; [1]): 5
- Plant response rating, Soybean (soybean; [2]): 7
- Plant response rating, Soybean (soybean; [3]): 0
- Soybean plant response rating (soybean; [4]): 1
- Soybean plant response rating (soybean; [5]): 3
- Soybean plant response rating (soybean; [6]): 3
- Plant response rating, S. Flatsedge (0 to 10 scale, 0 is no effect, 10 is complete control) (smallflower flatsedge; [9]): 0
- S. Flatsedge plant response rating (0 to 10 scale, 0 is no effect, 10 is complete control) (smallflower flatsedge; [10]): 0
- S. Flatsedge plant response rating (smallflower flatsedge; [11]): 0
- S. Flatsedge plant response rating (smallflower flatsedge; [12]): 0
- Plant response rating, Rice (0 to 10 scale, 0 is no effect, 10 is complete control) (rice; [9]): 0
- Rice plant response rating (0 to 10 scale, 0 is no effect, 10 is complete control) (rice; [10]): 0
- Rice plant response rating (rice; [11]): 0
- Rice plant response rating (rice; [12]): 0
- Velvetleaf plant response rating (velvetleaf; [1]): 0
- Plant response rating, Velvetleaf (velvetleaf; [2]): 5
- Plant response rating, Velvetleaf (velvetleaf; [3]): 2
- Velvetleaf plant response rating (velvetleaf; [4]): 2
- Velvetleaf plant response rating (velvetleaf; [5]): 7
- Velvetleaf plant response rating (velvetleaf; [6]): 0
- Bedstraw plant response rating (bedstraw; Rate 125 g/ha, scale 0 to 10, 0 is no effect, 10 is complete control): 3
- Bedstraw plant response rating (bedstraw; Rate 250 g/ha, scale 0 to 10): 5
- Bedstraw plant response rating (bedstraw; Rate 62 g/ha, scale 0 to 10 (0 no effect, 10 complete control)): 0
- Cocklebur plant response rating (cocklebur; [1]): 0
- Cocklebur plant response rating (cocklebur; [8]): 0
- Plant response rating, Cocklebur (cocklebur; [2]): 0
- Plant response rating, Cocklebur (cocklebur; [3]): 0
- Cocklebur plant response rating (cocklebur; [4]): 0
- Cocklebur plant response rating (cocklebur; [7]): 0
- Cocklebur plant response rating (cocklebur; [5]): 0
- Cocklebur plant response rating (cocklebur; [6]): 0
